In PubChem BioAssay (NCI):
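Results reflect a 48-hour exposure of cells in 96-well plates to compound at five concentrations. At the TGI there is no net growth.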

What was measured:
Test in all cases: DTP human tumour cell line panel, 48 h
[1] = test system: SK-MEL-28 melanoma
[2] = test system: MALME-3M melanoma
[3] = test system: OVCAR-4 ovarian
[4] = test system: SN12C renal
[5] = test system: U251 CNS
[6] = test system: IGROV1 ovarian
[7] = test system: SF-268 CNS
[8] = test system: KM20L2 colon
[9] = test system: HCT-116 colon
[10] = test system: DMS 114 small cell lung
[11] = test system: MOLT-4 leukemia
[12] = test system: SK-MEL-5 melanoma
[13] = test system: HCC-2998 colon
[14] = test system: SNB-75 CNS
[15] = test system: XF 498 CNS
[16] = test system: CAKI-1 renal
[17] = test system: HOP-92 NSCLC
[18] = test system: DLD-1 colon
[19] = test system: COLO 205 colon
[20] = test system: KM12 colon
[21] = test system: SW-620 colon
[22] = test system: SR leukemia
[23] = test system: HCT-15 colon
[24] = test system: NCI-H226 lung
[25] = test system: HL-60(TB) leukemia
[26] = test system: OVCAR-3 ovarian
[27] = test system: SF-295 CNS
[28] = test system: LOX IMVI melanoma
[29] = test system: A498 renal
[30] = test system: NCI-H460 lung
[31] = test system: UACC-257 melanoma
[32] = test system: RXF 393 renal
[33] = test system: ACHN renal
[34] = test system: RPMI-8226 leukemia
[35] = test system: CCRF-CEM leukemia
[36] = test system: NCI-H522 lung
[37] = test system: SNB-19 CNS
[38] = test system: SNB-78 CNS
[39] = test system: HOP-62 NSCLC
[40] = test system: HT29 colon
[41] = test system: EKVX NSCLC
[42] = test system: SF-539 CNS
[43] = test system: M19-MEL melanoma
[44] = test system: OVCAR-5 ovarian
[45] = test system: LXFL 529 NSCLC
[46] = test system: UO-31 renal
[47] = test system: A549 NSCLC
[48] = test system: UACC-62 melanoma
[49] = test system: 786-0 renal
[50] = test system: TK-10 renal
[51] = test system: SK-OV-3 ovarian
[52] = test system: K-562 leukemia
[53] = test system: NCI-H23 lung
[54] = test system: M14 melanoma
[55] = test system: DMS 273 small cell lung
[56] = test system: SK-MEL-2 melanoma
[57] = test system: OVCAR-8 ovarian

O=C1NC2C(=O)N(Cc3ccccc3)C(=O)C2N1 (configuration not stated)
TGI [1]: > 100 µM
TGI [2]: > 100 µM
TGI [3]: > 100 µM
TGI [4]: > 100 µM
TGI [5]: > 100 µM
TGI [6]: > 100 µM
TGI [7]: > 100 µM
TGI [8]: > 100 µM
TGI [9]: > 100 µM
TGI [10]: > 100 µM
TGI [11]: > 100 µM
TGI [12]: > 100 µM
TGI [13]: > 100 µM
TGI [14]: > 100 µM
TGI [15]: > 100 µM
TGI [16]: > 100 µM
TGI [17]: > 100 µM
TGI [18]: > 100 µM
TGI [19]: > 100 µM
TGI [20]: > 100 µM
TGI [21]: > 100 µM
TGI [22]: > 100 µM
TGI [23]: > 100 µM
TGI [24]: > 100 µM
TGI [25]: > 100 µM
TGI [26]: > 100 µM
TGI [27]: > 100 µM
TGI [28]: > 100 µM
TGI [29]: > 100 µM
TGI [30]: > 100 µM
TGI [31]: > 100 µM
TGI [32]: > 100 µM
TGI [33]: > 100 µM
TGI [34]: > 100 µM
TGI [35]: > 100 µM
TGI [36]: > 100 µM
TGI [37]: > 100 µM
TGI [38]: > 100 µM
TGI [39]: > 100 µM
TGI [40]: > 100 µM
TGI [41]: > 100 µM
TGI [42]: > 100 µM
TGI [43]: > 100 µM
TGI [44]: > 100 µM
TGI [45]: > 100 µM
TGI [46]: > 100 µM
TGI [47]: > 100 µM
TGI [48]: > 100 µM
TGI [49]: > 100 µM
TGI [50]: > 100 µM
TGI [51]: > 100 µM
TGI [52]: > 100 µM
TGI [53]: > 100 µM
TGI [54]: > 100 µM

COc1ccc(-c2cc(=O)c3c(OC)cccc3o2)c(OC)c1OC
TGI [1]: > 100 µM
TGI [2]: > 100 µM
TGI [3]: > 100 µM
TGI [4]: > 100 µM
TGI [5]: > 100 µM
TGI [6]: > 100 µM
TGI [7]: > 100 µM
TGI [8]: > 100 µM
TGI [9]: > 100 µM
TGI [10]: > 100 µM
TGI [11]: > 100 µM
TGI [12]: > 100 µM
TGI [13]: > 100 µM
TGI [14]: 74.4 µM
TGI [16]: > 100 µM
TGI [17]: > 100 µM
TGI [55]: > 100 µM
TGI [18]: > 100 µM
TGI [19]: > 100 µM
TGI [20]: > 100 µM
TGI [21]: > 100 µM
TGI [22]: > 100 µM
TGI [23]: > 100 µM
TGI [24]: > 100 µM
TGI [25]: > 100 µM
TGI [26]: > 100 µM
TGI [27]: > 100 µM
TGI [28]: > 100 µM
TGI [29]: > 100 µM
TGI [30]: > 100 µM
TGI [31]: > 100 µM
TGI [32]: > 100 µM
TGI [33]: > 100 µM
TGI [56]: > 100 µM
TGI [34]: > 100 µM
TGI [35]: > 100 µM
TGI [57]: > 100 µM
TGI [36]: > 100 µM
TGI [38]: > 100 µM
TGI [39]: > 100 µM
TGI [40]: > 100 µM
TGI [42]: > 100 µM
TGI [43]: > 100 µM
TGI [44]: > 100 µM
TGI [45]: > 100 µM
TGI [47]: > 100 µM
TGI [48]: > 100 µM
TGI [49]: > 100 µM
TGI [50]: > 100 µM
TGI [51]: > 100 µM
TGI [52]: > 100 µM
TGI [53]: > 100 µM
TGI [54]: > 100 µM
